Data on four compounds can be found in article PMC11881561 (Antimicrobial Agents and Chemotherapy, 2025).

For series [1], the target named is T1, KPC-2^D179Y (Klebsiella pneumoniae, UniProt Q9F663, D178Y). Description: β-lactam hydrolysis kinetics, purified KPC-2 D179Y. The class given is biochemical. The conditions noted are these: substrate hydrolysis by KPC-2 D179Y. As to the method: (§1) Measurements to determine kinetic parameters for hydrolysis, and kinetic parameters for inhibition were performed at ambient temperature in PBS (pH 7.4) containing 0.1 mg/mL bovine serum albumin, using a PowerWaveXS plate reader (BioTek).
(§2) Assays to determine Michaelis-Menten kinetic parameters were performed by mixing variable amounts of enzymes (depending on the enzyme-substrate pair), with serial dilutions of different BL substrates and continuously monitoring the reduction in absorbance associated with BL hydrolysis ([28], [36], [40], [41]). Kinetic parameters were determined by plotting initial rates of hydrolysis (v) as a function of substrate concentration [S] and fitting the data to equation 1 using GraphPad Prism,
(§3) (1) v=[Et]×kcat×[S]/KM+[S]
(§4) where [Et] is the enzyme concentration, kcat the turnover number and KM the Michaelis constant.

Series [2] deals with engineered E. coli strain expressing KPC-3 wt. Kind of series: microbe, parasite or virus in culture. Particulars: Escherichia coli; KPC-3 wt strain; BLIs at fixed 4 μg/mL. The format is cell-based.
For series [3], the system named is engineered E. coli strain expressing KPC-2^D179Y. Description: microbe, parasite or virus in culture. The format is cell-based. Particulars: Escherichia coli, BLIs at fixed 4 μg/mL.
The target in series [4] is T2, KPC-2 WT (Klebsiella pneumoniae, UniProt Q9F663). Description: biochemical. Particulars: inhibition of CENTA hydrolysis, read-out: Apparent affinity Ki^app.
Another series deals with KPC-2^V240G (Klebsiella pneumoniae, UniProt Q9F663, V239G). The class given is biochemical.
Series [5] relates to engineered E. coli strain expressing KPC-3^D179Y. Description: microbe, parasite or virus in culture. Particulars: Escherichia coli, BLIs at fixed 4 μg/mL. The format is cell-based.
Series [6] relates to engineered E. coli strain expressing KPC-3^D179Y/T243M. Description: microbe, parasite or virus in culture. The format is cell-based. Particulars: Escherichia coli, BLIs at fixed 4 μg/mL.
In series [7] the target is T3, KPC-3^D179Y/T243M (Klebsiella pneumoniae, UniProt Q9F663, D178Y/H272Y/T242M). Description: β-lactam hydrolysis kinetics, purified KPC-3 D179Y/T243M. The class given is biochemical. Particulars: substrate hydrolysis by KPC-3 D179Y/T243M. The protocol:
as §1, §2, §3, §4

Series [8] concerns the target T4, KPC-3 WT (Klebsiella pneumoniae, UniProt Q9F663, H272Y). The format is biochemical. Particulars: substrate hydrolysis by KPC-3 WT.
For series [9], the system named is engineered E. coli strain expressing KPC-2^D179Y/T243M. Kind of series: microbe, parasite or virus in culture. The class given is cell-based. Particulars: Escherichia coli, BLIs at fixed 4 μg/mL.
Series [10] has as its target T4, KPC-3 WT. Description: biochemical. The conditions noted are these: inhibition of CENTA hydrolysis, read-out: Apparent affinity Ki^app.
In series [11] the target is T3, KPC-3^D179Y/T243M. Description: biochemical. The conditions noted are these: ND = no significant inhibition at the highest concentration tested, read-out: Apparent affinity Ki^app.
The target of series [12] is T1, KPC-2^D179Y. Description: biochemical. The conditions noted are these: ND = no significant inhibition at the highest concentration tested, read-out: Apparent affinity Ki^app.
The target in series [13] is T5, KPC-3^D179Y (Klebsiella pneumoniae, UniProt Q9F663, D178Y/H272Y). Kind of series: β-lactam hydrolysis kinetics, purified KPC-3 D179Y. The class given is biochemical. The conditions noted are these: substrate hydrolysis by KPC-3 D179Y. The protocol: as §1, §2, §3, §4
The test system of series [14] is E. coli control strain lacking a β-lactamase. Kind of series: microbe, parasite or virus in culture. The format is cell-based. The conditions noted are these: Escherichia coli, no KPC expressed, BLIs at fixed 4 μg/mL.
The target in series [15] is T6, KPC-2^D179Y/T243M (Klebsiella pneumoniae, UniProt Q9F663, D178Y/T242M). Description: biochemical. Particulars: ND = no significant inhibition at the highest concentration tested, read-out: Apparent affinity Ki^app.
The target of the next series is KPC-3^V240G (Klebsiella pneumoniae, UniProt Q9F663, H272Y/V239G). The format is biochemical.
In series [16] the target is T5, KPC-3^D179Y. Description: biochemical. Particulars: ND = no significant inhibition at the highest concentration tested, read-out: Apparent affinity Ki^app.
Series [17] has as its system engineered E. coli strain expressing KPC-2^V240G. Kind of series: microbe, parasite or virus in culture. The format is cell-based. The conditions noted are these: Escherichia coli, BLIs at fixed 4 μg/mL.
Series [18] concerns engineered E. coli strain expressing KPC-3^V240G. Description: microbe, parasite or virus in culture. The format is cell-based. The conditions noted are these: Escherichia coli, BLIs at fixed 4 μg/mL.
The target of series [19] is T6, KPC-2^D179Y/T243M. Description: β-lactam hydrolysis kinetics, purified KPC-2 D179Y/T243M. Particulars: substrate hydrolysis by KPC-2 D179Y/T243M. The format is biochemical. As to the method:
as §1, §2, §3, §4

In series [20] the test system is E. coli strains expressing KPC-2^D179Y or KPC-2^D179Y/T243M. Description: microbe, parasite or virus in culture. The format is cell-based. The conditions noted are these: Escherichia coli.
Series [21] relates to D179Y-containing KPC-2 variants. The format is biochemical, Klebsiella pneumoniae.
Series [22] concerns engineered E. coli strain expressing KPC-2 wt. Description: microbe, parasite or virus in culture. The class given is cell-based. The conditions noted are these: Escherichia coli; KPC-2 wt strain; BLIs at fixed 4 μg/mL.
Series [23] has as its target T2, KPC-2 WT. The conditions noted are these: substrate hydrolysis by KPC-2 WT.
Series [24] relates to CO/N=C(\C(=O)N[C@@H]1C(=O)N2C(C(=O)[O-])=C(C[N+]3(C)CCCC3)CS[C@H]12)c1csc(N)n1. Description: purified protein, by the assay type. Particulars: pH 7.4.
The test system of series [25] is CC(C)(O/N=C(\C(=O)N[C@@H]1C(=O)N2C(C(=O)[O-])=C(C[n+]3ccccc3)CS[C@H]12)c1csc(N)n1)C(=O)O. Description: purified protein, by the assay type. The conditions noted are these: pH 7.4.
Series [26] deals with Nc1nc(/C(=C/CC(=O)O)C(=O)N[C@@H]2C(=O)N3C(C(=O)O)=CCS[C@H]23)cs1. Kind of series: purified protein, by the assay type. Particulars: pH 7.4.

≈ marks a conversion by molar mass, not a printed value. Where only a bound is given, the exact number is not on record here.

As usually defined, the Km is the substrate concentration at which the rate is half of its maximum. In general, kcat refers to the number of substrate molecules converted per active site and unit of time at saturation. Regarding `CO/N=C(\C(=O)N[C@@H]1C(=O)N2C(C(=O)[O-])=C(C[N+]3(C)CCCC3)CS[C@H]12)c1csc(N)n1` [FEP, cefepime], the Km on KPC-2^D179Y [1] is 3.7 ± 0.7 µM; at KPC-2^V240G it was > 500 µM; on KPC-3^D179Y/T243M [7], 42.5 ± 12.5 µM; on KPC-3 WT [8], > 500 µM; on KPC-3^D179Y [13] it was 90 ± 31 µM; on KPC-3^V240G, > 500 µM. On KPC-2^D179Y/T243M [19], the Km came out at 3 ± 0.6 µM. In addition, the kcat entry at KPC-2^D179Y [1] was “(1.5 ± 0.07) × 10^−2 s^−1”; at KPC-3^D179Y/T243M [7], 18.7 ± 2.3 s⁻¹; at KPC-3^D179Y [13], 38 ± 7 s⁻¹; at KPC-2^D179Y/T243M [19] it was “(1.7 ± 0.06) × 10^−2 s^−1”. Moreover, the MIC amounted to 128 µg/mL (≈ 266 µM) in series [2]; 16 µg/mL (≈ 33.3 µM) in series [3]; 32 µg/mL (≈ 66.6 µM) in [5]; 16 µg/mL (≈ 33.3 µM) in series [6]; 16 µg/mL (≈ 33.3 µM) in series [9]; 0.12 µg/mL (≈ 0.25 µM) in [14]. For the same compound, the MIC in series [17] was 128 µg/mL (≈ 266 µM); in series [18], 256 µg/mL (≈ 533 µM); in series [20], 16 µg/mL (≈ 33.3 µM); in series [22], 64 µg/mL (≈ 133 µM). For the same compound, the Ki on KPC-2 WT [4] turned out to be 32.9 ± 5.6 µM; at KPC-3 WT [10] it was 276 ± 47 µM; on KPC-3^D179Y/T243M [11], 728 ± 58 µM; on KPC-2^D179Y [12], 4.6 ± 1.2 µM; on KPC-2^D179Y/T243M [15], 3.2 ± 0.6 µM; at KPC-3^D179Y [16], 1040 ± 72 µM. Further, the “weaker affinity than CAZ” value in [21] is ~ 10 fold.
Take `O=C(Cc1cccs1)N[C@@H]1C(=O)N2C(C(=O)O)=C(CSc3ccc([N+](=O)[O-])c(C(=O)O)c3)CS[C@H]12` [CENTA]: the Km turned out to be 1.9 ± 0.2 µM at KPC-2^D179Y [1]; 63.3 ± 2.3 µM on KPC-2^V240G; 153 ± 25 µM on KPC-3^D179Y/T243M [7]; 105 ± 24 µM on KPC-3 WT [8]; 19.7 ± 1.3 µM on KPC-2 WT [23] (PBS pH 7.4); 124 ± 17 µM at KPC-3^D179Y [13]. The values for the Km on KPC-3^V240G and at KPC-2^D179Y/T243M [19] were 54.8 ± 8.3 µM and 2.1 ± 0.3 µM, respectively. The kcat result is “(1.2 ± 0.08) × 10^−2 s^−1” on KPC-2^D179Y [1]; 662 ± 9.6 s⁻¹ on KPC-2^V240G; 0.18 ± 0.02 s⁻¹ at KPC-3^D179Y/T243M [7]; 38 ± 3.4 s⁻¹ on KPC-3 WT [8]; 243 ± 11 s⁻¹ on KPC-2 WT [23]; 0.24 ± 0.02 s⁻¹ at KPC-3^D179Y [13]. In addition, the kcat was 12.7 ± 1.1 s⁻¹ on KPC-3^V240G and “(0.9 ± 0.04) × 10^−2 s^−1” on KPC-2^D179Y/T243M [19].
For orientation: kcat/Km means the second-order rate constant that governs catalysis at low substrate concentration. With KPC-2 WT (Klebsiella pneumoniae), the kcat/Km in series [24] came out at 130000 ± 4000 M⁻¹ s⁻¹; in series [25], 730 ± 130 M⁻¹ s⁻¹; in [26] it was 2200 ± 240 M⁻¹ s⁻¹.
For the compound `Nc1nc(/C(=C/CC(=O)O)C(=O)N[C@@H]2C(=O)N3C(C(=O)O)=CCS[C@H]23)cs1` [CTB, ceftibuten], the MIC in series [2] turned out to be 32 µg/mL (≈ 78 µM); in series [3] it was 16 µg/mL (≈ 39 µM); in series [5], 32 µg/mL (≈ 78 µM); in series [6], 16 µg/mL (≈ 39 µM); in series [9], 16 µg/mL (≈ 39 µM); in [14], 1 µg/mL (≈ 2.44 µM). Further, the values for the MIC in [17], in [18] and in series [22] were 64 µg/mL (≈ 156 µM), 32 µg/mL (≈ 78 µM) and 16 µg/mL (≈ 39 µM), respectively. Besides, the Ki was 159 ± 10 µM at KPC-2 WT [4] and 368 ± 26 µM at KPC-3 WT [10].
